Experimental data: EP2161266A1, “Benzofuran derivatives as orexin receptor antagonists” (EVOTEC Neurosciences GmbH, priority 2008, dated 2010)

target: T1, human Orexin-1 receptor (hOX1R) (Homo sapiens, UniProt O43613); assay: Ca2+-flux assay for IC50 determination in CHO-hOX1R cells (Orexin-A stimulated); type: cell-based; details: 5nM Orexin-A agonist, fluo-4 fluorescence, compounds 1.28nM to 20µM, triplicates, read-out: 0X1
T1 construct: host or cells: CHO-K1
T1 sequence (O43613 1-425): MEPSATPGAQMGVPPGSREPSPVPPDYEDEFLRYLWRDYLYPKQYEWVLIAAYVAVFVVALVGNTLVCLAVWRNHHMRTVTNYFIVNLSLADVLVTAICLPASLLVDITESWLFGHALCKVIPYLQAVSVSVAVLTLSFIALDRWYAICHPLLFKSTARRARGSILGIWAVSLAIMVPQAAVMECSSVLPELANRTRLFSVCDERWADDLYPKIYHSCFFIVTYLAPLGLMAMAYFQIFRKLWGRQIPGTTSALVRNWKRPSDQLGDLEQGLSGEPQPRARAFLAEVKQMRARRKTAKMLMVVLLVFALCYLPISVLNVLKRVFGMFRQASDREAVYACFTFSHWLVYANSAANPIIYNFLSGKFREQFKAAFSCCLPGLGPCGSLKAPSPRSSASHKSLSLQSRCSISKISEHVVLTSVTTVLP
Excerpt: A CHO-K1 cell line stably expressing human Orexin-1 receptor (hOX1R, coding sequence of AF041243) was obtained from Euroscreen/PerkinElmer (CHO-hOX1R, ES-330-C). A plasmid containing the human Orexin-2 receptor (hOX2R) cDNA was purchased from RZPD (RZPDo834A1045-pT-REx-DEST30). The human Orexin-2 receptor coding region was amplified in a gradient PCR reaction using hOX2Rfor (5' ccaggatccgc […]) and hOX2Rrev (5' […]) primers containing restriction sites for the restriction enzymes BamHI and NotI. The PCR reaction was performed with the LightCycler system from Roche Applied Science. The amplified DNA fragment was digested with restriction enzymes BamHI and Notl (Fermentas) and subsequently cloned into the BamHI/NotI sites of the pFB-Neo vector (Stratagene) thereby generating plasmid pFB-Neo-hOX2R. For a stably expressing CHO-hOX2R cell line viral transduction of CHO-K1 cells were performed by using the pFB-Neo-hOX2R plasmid and the pVPack vector system from Stratagene according to the manufacturer's manual. Cells expressing the hOX2 receptor were selected using G418 at a final concentration of 500µg/ml and single cell clones were produced by limited dilution cloning.
CHO-hOX1R cells were grown in HAM F12 Nutrient Mixture (Sigma, N6658), 10%Fetal Bovine Serum (Sigma, F9665), 1% Penstrep (Sigma, p4333) and […] G418 (Sigma, A1720). CHO-hOX2R cells were grown in DMEM F12 medium (Sigma, D8437) supplemented with 10%Fetal Bovine Serum (Sigma, F9665), 1% Penstrep (Sigma, p4333) and […] G418 (Sigma, A1720). Cells were maintained under 5% CO2 atmosphere at 37°C. Cells were passaged every 2-3 days.
CHO-hOX1R and CHO-hOX2R cells were seeded at a density of 7500 cells per well into black, 384 well Costar Cellbind plates and cultured overnight in the appropriate cell culture medium as described above without G418 selection. The next day the medium was removed and the cells were incubated for 1.5hrs at 37°C in fluo-4, AM dye solution [2µM fluo-4,AM (Molecular Probes; F-14202, Lot#28C1-12) in 5mM probenecid (Sigma, P-8761, Lot# 121K1662), 0.1% Bovine Serum Albumin (BSA, MERCK, 1.12018.0100), 1xHBSS (Invitrogen, 14025-050), 20mM HEPES (Invitrogen,. 15630-056)]. […] All compound concentrations were measured in triplicates. Subsequently, agonist solution (5nM Orexin-A, TOCRIS, 1455) in 5mM probenecid, 0.1% BSA, 1xHBSS, 20mM HEPES was added during incubation of the plate at 37°C in the fluorescence plate reader (FlexStation, Molecular Devices). Fluorescence was measured for 0-60 seconds per well at an excitation of 485nm and emission of 538nm. For EC50 determination of Orexin-A the cells were incubated as described above for 20min at 37°C in probenecid buffer (5mM probenecid, 0.1% BSA, 1xHBSS, 20mM HEPES, 1%DMSO) without compound solution. Agonist injection occurred in the fluorescence plate reader (FlexStation, Molecular Devices) at different concentrations ranging from 0-100nM in 5mM probenecid, 0.1% BSA, 1xHBSS, 20mM HEPES. Detection of fluorescence was as described above.

| Compound | IC50 [nM] |
| --- | --- |
| N-(4-Thioanisolyl)-3-methyl-2-benzofurancarboxamide [Example 11] | < 1000 |
| CCN(CC)c1ccc(NC(=O)c2cc3ccccc3o2)cc1 [Example 13, N-[4-(Diethylamino)phenyl]-2-benzofurancarboxamide] | < 1000 |
| Cc1nc2ccc(NC(=O)c3oc4ccccc4c3C)cc2s1 [Example 14, N-(2-Methyl-6-benzothiazolyl)-3-methyl-2-benzofurancarboxamide] | < 1000 |
| CCN(CC)c1ccc(NC(=O)c2oc3ccccc3c2COC)cc1 [Example 4, N-[4-(Diethylamino)phenyl]-3-(methoxymethyl)-2-benzofurancarboxamide] | < 1000 |
| CCN(CC)c1ccc(NC(=O)c2oc3ccccc3c2OC)cc1 [Example 12, N-[4-(Diethylamino)phenyl]-3-methoxy-2-benzofurancarboxamide] | < 300 |
| CCN(CC)c1ccc(NC(=O)c2oc3ccccc3c2NC(C)=O)cc1 [Example 15, N-[4-(Diethylamino)phenyl]-3-(acetylamino)-2-benzofurancarboxamide] | < 3000 |
| Cc1c(C(=O)Nc2ccc3c(ccn3C)c2)oc2ccccc12 [Example 10, N-(1-Methyl-1H-indol-5-yl)-3-methyl-2-benzofurancarboxamide] | < 1000 |
| COc1ccc(NC(=O)c2oc3ccccc3c2C)cc1Cl [Example 7, N-(3-Chloro-4-methoxyphenyl)-3-methyl-2-benzofurancarboxamide] | < 3000 |
| CCOc1ccc(NC(=O)c2oc3ccccc3c2C)cc1 [Example 9, N-(4-Ethoxyphenyl)-3-methyl-2-benzofurancarboxamide] | < 3000 |
| Cc1c(C(=O)Nc2ccc3c(c2)OCCO3)oc2ccccc12 [Example 1, N-(2,3-Dihydro-1,4-benzodioxin-6-yl)-3-methyl-2-benzofurancarboxamide] | < 3000 |
| CCc1c(C(=O)Nc2ccc3nc(C)oc3c2)oc2ccccc12 [Example 6, N-(2-Methyl-6-benzoxazolyl)-3-ethyl-2-benzofurancarboxamide] | < 300 |
| CCc1c(C(=O)Nc2ccc(N(CC)CC)cc2)oc2ccccc12 [Example 5, N-[4-(Diethylamino)phenyl]-3-ethyl-2-benzofurancarboxamide] | < 300 |
| Cc1nc2ccc(NC(=O)c3oc4ccccc4c3C)cc2o1 [Example 3, N-(2-Methyl-6-benzoxazolyl)-3-methyl-2-benzofurancarboxamide] | < 300 |
| Cc1c(C(=O)Nc2ccc3c(c2)OCCCO3)oc2ccccc12 [Example 8, N-(3,4-dihydro-2H-1,5-benzodioxepin-7-yl)-3-methyl-2-benzofurancarboxamide] | < 3000 |
| CCN(CC)c1ccc(NC(=O)c2oc3ccccc3c2C)cc1 [Example 2, N-[4-(Diethylamino)phenyl]-3-methyl-2-benzofurancarboxamide] | < 300 |

target: T2, OX1 (Mus musculus, UniProt P58307); assay: not given; details: pretreatment before naloxone-precipitated withdrawal; Sharf et al, Biol Psychiatry, 2008; cited from earlier work
T2 sequence (P58307 1-416): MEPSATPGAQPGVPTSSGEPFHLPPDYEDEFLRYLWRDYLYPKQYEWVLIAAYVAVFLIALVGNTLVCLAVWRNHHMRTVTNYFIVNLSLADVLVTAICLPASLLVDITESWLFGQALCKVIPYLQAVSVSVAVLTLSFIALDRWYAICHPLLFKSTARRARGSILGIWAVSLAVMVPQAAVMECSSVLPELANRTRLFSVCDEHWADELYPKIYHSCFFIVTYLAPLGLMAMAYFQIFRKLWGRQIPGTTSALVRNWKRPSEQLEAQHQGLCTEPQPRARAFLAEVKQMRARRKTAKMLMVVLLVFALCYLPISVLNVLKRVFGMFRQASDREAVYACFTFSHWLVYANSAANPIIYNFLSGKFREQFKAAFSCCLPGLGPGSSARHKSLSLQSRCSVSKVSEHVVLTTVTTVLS

| Compound | withdrawal symptoms |
| --- | --- |
| Cc1nc2ccc(NC(=O)Nc3ccnc4cccnc34)cc2o1 [SB-334867] | striking reduction in several withdrawal symptoms |
